One may read the IC50 as the point on the concentration scale where inhibition reaches its midpoint.

Experimental findings from patent US10053451B2, “Heterocyclic estrogen receptor modulators and uses thereof” (priority 2015, dated 2018) are described below.

Common to all, as to type: cell-based
The target of one test is T1, ER-α (Homo sapiens, UniProt P03372).
T1 construct: MCF7 cells were trypsinized and washed twice; endogenous in cells; host or cells: MCF7 breast cancer cells
T1 sequence (P03372 1-595): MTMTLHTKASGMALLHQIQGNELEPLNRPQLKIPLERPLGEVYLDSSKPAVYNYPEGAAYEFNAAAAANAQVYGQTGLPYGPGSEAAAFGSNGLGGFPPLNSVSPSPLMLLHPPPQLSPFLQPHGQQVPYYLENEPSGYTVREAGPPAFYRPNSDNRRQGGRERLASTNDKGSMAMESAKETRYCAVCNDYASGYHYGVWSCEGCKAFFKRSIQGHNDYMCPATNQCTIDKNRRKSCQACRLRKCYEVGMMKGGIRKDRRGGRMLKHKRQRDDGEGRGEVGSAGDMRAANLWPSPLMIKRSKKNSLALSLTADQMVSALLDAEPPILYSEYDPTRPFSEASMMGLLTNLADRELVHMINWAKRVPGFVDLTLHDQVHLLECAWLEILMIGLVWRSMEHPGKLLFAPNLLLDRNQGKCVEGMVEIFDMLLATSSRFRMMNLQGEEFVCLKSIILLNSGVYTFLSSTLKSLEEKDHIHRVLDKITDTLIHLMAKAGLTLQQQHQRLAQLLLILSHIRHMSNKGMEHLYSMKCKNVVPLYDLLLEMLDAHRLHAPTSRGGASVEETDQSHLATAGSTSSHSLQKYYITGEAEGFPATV
The test can be described thus: ER-α In Cell Western Assay. To be noted: MCF7 cells, 4 hours post compound addition, SP1 anti-ER antibody; read-out: ICW (SP1) max response. Here is the method: MCF7 cells were trypsinized and washed twice in Phenol Red Free RPMI containing 5% Charcoal Dextran Stripped serum with 20 mM HEPES and NEAA, then adjusted to a concentration of 200,000 cells per mL with the same medium. Next, 16 μL of the cell suspension (3200 cells) was added to each well of a poly-D-lysine coated 384 well plate, and the cells were incubated at 37° C. over 4 days to allow the cells to adhere and grow. […] At 4 hours post compound addition, the cells were fixed by adding 16 μL of 30% formalin to the 32 μL of cells and compound (10% formalin final concentration) for 20 minutes. Cells were then washed twice with PBS Tween 0.1% and then permeabilized in PBS 0.1% Triton (50 μl/well) for additional 15 minutes. The PBS 0.1% triton was decanted, and the cells were washed: LI-COR blocking buffer (50 μL/well) was added, the plate was spun at 3000 rpm, and then the blocking buffer was decanted. Additional LI-COR blocking buffer (50 μL/well) was added, and the cells were incubated overnight at 4° C. The blocking buffer was decanted, and the cells were incubated overnight at 4° C. with SP1 (Thermo Scientific) anti-ER rabbit monoclonal antibody diluted 1:1000 in LI-COR blocking buffer/0.1% Tween-20. Wells which were treated with blocking buffer with Tween but no antibody were used as a background control. Wells were washed twice with PBS Tween 0.1% to remove free SP1 antibodies, and the cells were incubated at room temp for 60-90 minutes in LI-COR goat anti-rabbit IRDye™ 800CW (1:1000) and DRAQ5 DNA dye (1:10000 of 5 mM stock solution) diluted in LI-COR blocking buffer containing 0.1% Tween-20 and 0.01% SDS. Cells were then washed with 0.1% Tween-20/PBS three times. Plates were scanned on a LI-COR Odyssey infrared imaging system. Integrated intensities in the 800 nm channel and 700 nm channel were measured to determine levels of ER-α and DNA respectively. Percent ER levels were determined as follows: (Integrated intensity […] sample/integrated intensity 700 nm sample)/(Integrated intensity 800 nm untreated cells/integrated intensity 700 nm untreated cells)×100=% ER levels.

Another test deals with MCF-7 cells. Briefly: Breast Cancer Cell Viability Assay (CellTiter-Glo). To be noted: 5 days of compound exposure; for IC50: Homo sapiens, MCF7, 120 h, read-out: MCF7 viab IC50. On the procedure: The following day a 10 point, serial 1:5 dilution of each compound was added to the cells in 16 μL at a final concentration ranging from 10-0.00000 μM. After 5 days of compound exposure, 16 μL of CellTiter-GLo (Promega, Madison Wis.) was added to the cells, and the relative luminescence units (RLUs) of each well were determined. CellTiter-Glo added to 32 μL of medium without cells was used to obtain a background value.
(In ATP-based viability assays light output follows the ATP content of the culture.)

Test [1] deals with T2, estrogen receptor alpha (ESR1) (Homo sapiens, UniProt P03372).
T2 construct: MCF7 cells were trypsinized and washed twice; endogenous in cells; host or cells: MCF7 breast cancer cells
T2 sequence (P03372 1-595): T1 sequence (P03372 1-595)
The test can be described thus: Breast Cancer Cell ERa High Content Fluorescence Imaging Assay (ER-alpha MCF7 Assay). Conditions: MCF7 cells, 4 hours; plateau of maximal effect; DMSO = 0%, 5 nM Fulvestrant = 100% change in ESR1. On the procedure:
Cell plates were incubated at 37° C., for 4 hours. Fixation and permeabilization were carried out using a Biotek EL406 plate washer and dispenser as follows. […] Samples were incubated 30 minutes. Well contents was aspirated and 50 uL/well of Phosphate Buffered Saline (PBS) containing 0.5% w/v bovine serum albumen, 0.5% v/v Triton X-100 (Antibody Dilution Buffer) was added to each well. Samples were incubated for 30 minutes. Well contents were aspirated and washed 3 times with 100 uL/well of PBS. Immunofluorescence staining of estrogen receptor alpha (ESR1) was carried out using a Biotek EL406 plate washer and dispenser as follows. […] Samples were incubated for 2 hours at room temperature. Samples were washed 4 times with 100 uL/well of PBS. […] Samples were incubated for 2 hours at room temperature. Samples were washed 3 times with 100 uL/well of PBS using a Biotek EL406. Quantitative fluorescence imaging of ESR1 was carried out using a Cellomics Arrayscan V (Thermo). […] Channel 1 (DNA stain) was used to define the nuclear region (Circ). […] The “Robust Fit” method was used to define the inflexion point of curve (EC50) and the plateau of the maximal effect (Sinf).

As for `CC1=C(c2cccc(O)c2)C(c2ccc(OCCN3CCCC3)nc2)Oc2ccc(O)cc21` (centres unmarked) [Example 1, 3-(3-Hydroxyphenyl)-4-methyl-2-(6-(2-(pyrrolidin-1-yl)ethoxy)pyridin-3-yl)-2H-chromen-6-ol], the Emax on ER-α came to 65.9%. For the same compound, in the test on MCF-7 cells, the “MCF7 viab max response” value is 53.6 and the IC50 was 0.18 nM.

As for `CC1=C(c2cccc(O)c2)C(c2ccc(OC[C@H](C)N3CC[C@@H](C)C3)nc2)Oc2ccc(O)cc21` (stereo partly drawn) [Example 2, 3-(3-Hydroxyphenyl)-4-methyl-2-(6-((S)-2-((R)-3-methylpyrrolidin-1-yl)propoxy)pyridin-3-yl)-2H-chromen-6-ol], on ER-α, the Emax is 76.1%. Further, in the test with MCF-7 cells, the “MCF7 viab max response” value came to 56.9 and the IC50 came out at 0.13 nM.

As to `CC1=C(c2cccc(O)c2)C(c2cnc(OC[C@H](C)N3CC[C@@H](C)C3)cn2)Oc2ccc(O)cc21` (stereo partly drawn) [Example 3, 3-(3-Hydroxyphenyl)-4-methyl-2-(5-((S)-2-((R)-3-methylpyrrolidin-1-yl)propoxy)pyrazin-2-yl)-2H-chromen-6-ol], the Emax on ER-α came out at 83.3%. Moreover, in the test with MCF-7 cells, the “MCF7 viab max response” value is listed as 61.1 and the IC50 was determined as 0.66 nM.

Regarding `CC1=C(c2cccc(O)c2)C(c2cnc(OCCN3CCCC3)cn2)Oc2ccc(O)cc21` (centres unmarked) [Example 4, 3-(3-Hydroxyphenyl)-4-methyl-2-(5-(2-(pyrrolidin-1-yl)ethoxy)pyrazin-2-yl)-2H-chromen-6-ol], the Emax on ER-α amounted to 70.1%. Further, in the test with MCF-7 cells, the “MCF7 viab max response” value was determined as 49.5 and the IC50 stood at 0.36 nM.

For the compound `CC1=C(c2cccc(O)c2)C(c2ccc(OC[C@H](C)N3CC[C@@H](C)C3)cn2)Oc2ccc(O)cc21` (stereo partly drawn) [Example 5, 3-(3-Hydroxyphenyl)-4-methyl-2-(5-((S)-2-((R)-3-methylpyrrolidin-1-yl)propoxy)pyridin-2-yl)-2H-chromen-6-ol], at ER-α, the Emax was determined as 86.7%. Moreover, in the test with MCF-7 cells, the “MCF7 viab max response” value was found to be 64.2 and the IC50 came to 1.23 nM.

On to `CC1=C(c2cccc(O)c2)C(c2ccc(OCCN3CCCC3)cn2)Oc2ccc(O)cc21` (centres unmarked) [Example 6, 3-(3-Hydroxyphenyl)-4-methyl-2-(5-(2-(pyrrolidin-1-yl)ethoxy)pyridin-2-yl)-2H-chromen-6-ol], for which, on ER-α, the Emax worked out at 69.9%. In the test on MCF-7 cells, the “MCF7 viab max response” value was found to be 56.9 and the concentration for half-maximal inhibition (IC50) amounted to 7.08 nM.

Turning to `CC1=C(c2cc(O)c(F)c(F)c2)C(c2ccc(OC[C@H](C)N3CC[C@@H](C)C3)cn2)Oc2ccc(O)cc21` (stereo partly drawn) [Example 7, 3-(3,4-Difluoro-5-hydroxyphenyl)-4-methyl-2-(5-((S)-2-((R)-3-methylpyrrolidin-1-yl)propoxy)pyridin-2-yl)-2H-chromen-6-ol], the Emax on ER-α turned out to be 87.1%. In the test on MCF-7 cells, the “MCF7 viab max response” value is given as 72.1 and the IC50 worked out at 1.29 nM.

Turning to `CC1=C(c2ccc(O)cc2)C(c2ccc(OC[C@H](C)N3CC[C@@H](C)C3)cn2)Oc2ccc(O)cc21` (stereo partly drawn) [Example 8, 3-(4-Hydroxyphenyl)-4-methyl-2-(5-((S)-2-((R)-3-methylpyrrolidin-1-yl)propoxy)pyridin-2-yl)-2H-chromen-6-ol], the Emax at ER-α was found to be 85.9%. Further, in the test on MCF-7 cells, the “MCF7 viab max response” value worked out at 69.3 and the IC50 is 1.36 nM.

With `CC1=C(c2ccc(O)c(F)c2)C(c2ccc(OC[C@H](C)N3CC[C@@H](C)C3)cn2)Oc2ccc(O)cc21` (stereo partly drawn) [Example 9, 3-(3-Fluoro-4-hydroxyphenyl)-4-methyl-2-(5-((S)-2-((R)-3-methylpyrrolidin-1-yl)propoxy)pyridin-2-yl)-2H-chromen-6-ol], the Emax at ER-α was 88%. In the test on MCF-7 cells, the “MCF7 viab max response” value is recorded as 71.6 and the IC50 turned out to be 1.03 nM.

Turning to `CC1=C(c2ccc(O)cc2F)C(c2ccc(OC[C@H](C)N3CC[C@@H](C)C3)cn2)Oc2ccc(O)cc21` (stereo partly drawn) [Example 10, 3-(2-Fluoro-4-hydroxyphenyl)-4-methyl-2-(5-((S)-2-((R)-3-methylpyrrolidin-1-yl)propoxy)pyridin-2-yl)-2H-chromen-6-ol], at ER-α, the Emax stood at 83.4%. For the same compound, in the test on MCF-7 cells, the “MCF7 viab max response” value was 70.9 and the IC50 came out at 0.74 nM.

Turning to `CC1=C(c2ccc3cn[nH]c3c2)C(c2ccc(OC[C@H](C)N3CC[C@@H](C)C3)cc2)Oc2ccc(O)cc21` (stereo partly drawn) [Example 11, 3-(1H-Indazol-6-yl)-4-methyl-2-(4-((S)-2-((R)-3-methylpyrrolidin-1-yl)propoxy)phenyl)-2H-chromen-6-ol], on ER-α, the Emax stood at 74.1%. In the test on MCF-7 cells, the “MCF7 viab max response” value came out at 55.8 and the IC50 worked out at 17 nM.

With `CC1=C(c2ccc3[nH]ncc3c2)C(c2ccc(OC[C@H](C)N3CC[C@@H](C)C3)cc2)Oc2ccc(O)cc21` (stereo partly drawn) [Example 12, 3-(1H-Indazol-5-yl)-4-methyl-2-(4-((S)-2-((R)-3-methylpyrrolidin-1-yl)propoxy)phenyl)-2H-chromen-6-ol], the Emax on ER-α was 74.8%. Besides, in the test on MCF-7 cells, the “MCF7 viab max response” value worked out at 60.1 and the IC50 came to 2.56 nM.

As for `CC1=C(c2cccc3[nH]ncc23)C(c2ccc(OC[C@H](C)N3CC[C@@H](C)C3)cc2)Oc2ccc(O)cc21` (stereo partly drawn) [Example 13, 3-(1H-Indazol-4-yl)-4-methyl-2-(4-((S)-2-((R)-3-methylpyrrolidin-1-yl)propoxy)phenyl)-2H-chromen-6-ol], the Emax at ER-α worked out at 85.1%. Also, in the test with MCF-7 cells, the “MCF7 viab max response” value is 65.9 and the IC50 came to 0.9 nM.

Take `CC1=C(c2cccc(O)c2)C(c2ccc(OC[C@H](C)N3CC[C@@H](C)C3)cc2)Oc2ccc3[nH]ncc3c21` (stereo partly drawn) [Example 14, 3-(9-Methyl-7-(4-((S)-2-((R)-3-methylpyrrolidin-1-yl)propoxy)phenyl)-3,7-dihydropyrano[3,2-e]indazol-8-yl)phenol]: the Emax at ER-α is 77.8%. Also, in the test on MCF-7 cells, the “MCF7 viab max response” value came to 62.3 and the IC50 came to 0.83 nM.

As to `CC1=C(c2cccc(O)c2)[C@H](c2cnn(CCCN3CC(CF)C3)c2)Oc2ccc(O)cc21` [Example 51, (R)-2-(1-(3-(3-(fluoromethyl)azetidin-1-yl)propyl)-1H-pyrazol-4-yl)-3-(3-hydroxyphenyl)-4-methyl-2H-chromen-6-ol], the “ER-alpha MCF7 Sinf (%)” value in test [1] is 94.7%.

For `CC1=C(/C=C/CO)C(c2ccc(OCCN3CC(CF)C3)cc2)Oc2ccc(O)cc21` (centres unmarked) [Example 52, 2-[4-[2-[3-(fluoromethyl)azetidin-1-yl]ethoxy]phenyl]-3-[(E)-3-hydroxyprop-1-enyl]-4-methyl-2H-chromen-6-ol], in test [1], the “ER-alpha MCF7 Sinf (%)” value came to 97.3%.
